According to patent publication US9309547B2, “Methods for making tocoflexols and analogues thereof” (The Board of Trustees of the University of Arkansas, priority 2012, dated 2016):
Values joined by “and” are separate entries in the source; they are usually repeats but may differ in a detail not shown here. Identical values can stand only once.

Legend:
[1] = tested on: rat liver microsomes; assay: Inhibition of lipid peroxidation in rat liver microsomes treated with TBHP; format: biochemical, Wistar rat; conditions: FIG. 2; for IC50: 1 mg/ml microsomal protein, 37° C. 1 hour preincubation, 200 μM TBHP for 30 min
Experimental: One of the most well-known properties of the vitamin E components is their ability to prevent lipid peroxidation. See Traber et al. (2011) Free Radis Biol Med 51(5):1000-1013. Briefly, the antioxidant activity of vitamin E analogs was evaluated in rat liver microsomes by measuring inhibition of lipid peroxidation after TBHP ([…]) treatment. Wistar rat liver microsomes (BD Biosciences) were diluted in phosphate buffer, 0.1 M (pH 7.4), at the final protein concentration of 1 mg/ml. The microsomes were treated with different concentrations of tocols (diluted with DMSO) and incubated at 37° C. for 1 hour before inducing lipid peroxidation with 200 μM TBHP (DMSO) for 30 min.

[2] = tested on: Mouse NSC 34 cells; assay: Cell uptake of tocols by NSC 34 cells (GC/MS); format: cell-based; conditions: final concentration 5 μM, 0-24 hours, FIG. 1
Experimental: The experiment was carried out as described below. Mouse NSC 34 cells were grown in Dulbecco's modified Eagle's medium (DMEM) supplemented with 10% fetal bovine serum and 1% penicillin/streptomycin at 37° C. in a humidified atmosphere containing 95% air and 5% CO2. The cell culture medium was replaced every 2 or 3 days with fresh medium containing serum and antibiotic. Cells were reseeded when the cell monolayers became confluent. For the experiments, cells at passages 15-27 were seeded in 6-well plates at 1 million cells per well. 5 mM test solutions were prepared in DMSO. NSC 34 monolayers above 80% confluency were treated with 2 μl of test compound (final concentration 5 μM) for 0, 1, 2, 4, 8, 12, and 24 hours. […] Hexane extracts were dried under nitrogen and were quantitatively transferred to a deactivated glass micro insert using methylene chloride and dried under nitrogen. […] Protein concentration was determined using the Pierce BCA protein assay kit. The derivatized samples were analyzed using GC/MS by single ion monitoring (Agilent 5975 GC/MSD; Agilent Technologies, Palo Alto, Calif.). […] Samples were analyzed using helium as the carrier gas (head pressure of 27 psi), 1 μl splitless injection, the injector temperature was 275° C., the column temperature was maintained at 220° C. for 2 min followed by a gradient of 25° C./min to 300° C., and remained at that temperature for 10 min. […]

SMILES | IC50 [1] [µM] | antioxidant potential, times that of α-tocopherol (AT) ([1]; rat liver microsomes treated with 200 μM TBHP) | cell-uptake compared with that of α-tocopherol [2]
CC(C)=CCC[C@@H](C)CCC/C(C)=C/CC[C@]1(C)CCc2cc(O)cc(C)c2O1 [δ-tocoflexol, (2R,8′S)-δ-tocoflexol] | 1.35 | > 5 times and 5 times | almost double
Cc1c(C)c2c(c(C)c1O)CC[C@@](C)(CCC[C@H](C)CCC[C@H](C)CCCC(C)C)O2 [AT, α-tocopherol, reference compound] | 6.78 |  | 
